In US20030044399A1, “Method of treatment” (SmithKline Beecham Corporation, priority 1998, published 2003):
Like-named read-outs stand apart in the source and are kept apart here.

Columns and labels:
Schisto B 1 = Schisto B 1 (Schistosoma mansoni, UniProt P25792); test: Cysteine protease inhibition, progress curve method, schistosoma B 1; type: biochemical; settings: 10 uM Cbz-Phe-Arg-AMC, 100 mM Na acetate pH 5.5, 5 mM cysteine; read-out: Schisto B 1 Ki
Description: (§1) Standard assay conditions for the determination of kinetic constants used 10 uM fluorogenic peptide substrate, Cbz-Phe-Arg-AMC for the cysteine proteases from Leishmania spp and Schistosoma Mansoni, Cbz-Leu-Arg-AMC for the cysteine proteases from Plasmodium falciparum and Trypanosoma brucei rhodesiensi, and Ac-Lys-Glu-Lys-Leu-Arg-AMC (4 uM final substrate concentration) for the cysteine protease from Trypoanosoma cruzi, and were determined in 100 mM Na acetate at pH 5.5 containing 5 mM cysteine. Stock substrate solutions were prepared at concentrations of […] in DMSO with 10 uM (4 uM for Ac-Lys-Glu-Lys-Leu-Arg-AMC) final substrate concentration in the assays. The final DMSO concentration was 2% and the final volume was 100 uL. All assays were conducted at ambient temperature. Product progress curves were generated over 20 to 30 minutes following formation of AMC product.
(§2) Potential inhibitors were evaluated using the progress curve method. Assays were carried out in the presence of variable concentrations of test compound. Reactions were initiated by addition of enzyme to buffered solutions of inhibitor and substrate. Data analysis was conducted according to one of two procedures depending on the appearance of the progress curves in the presence of inhibitors. For those compounds whose progress curves were linear, apparent inhibition constants (Ki,app) were calculated according to equation 1 (Brandt et al., Biochemitsry, 1989, 28, 140):
(§3) v=VmA/[Ka(1+I/Ki,app)+A] (1)
(§4) Where v is the velocity of the reaction with maximal velocity Vm, A is the concentration of substrate with Michaelis constant of Ka, and I is the concentration of inhibitor.
(§5) [AMC]=vsst+(v0−vss)[1−exp (−kobst)]/kobs (2)
(§6) Where [AMC] is the concentration of product formed over time t, v0 is the initial reaction velocity and vss is the final steady state rate. Values for kobs were then analyzed as a linear function of inhibitor concentration to generate an apparent second order rate constant (kobs/inhibitor concentration or kobs/[I]) describing the time-dependent inhibition. A complete discussion of this kinetic treatment has been fully described (Morrison et al., Adv. Enzymol. Relat. Areas Mol. Biol., 1988, 61, 201).
(§7) Exemplary inhibition data for the compounds used in the present method collected in accordance with the above-described procedure are listed in Table I.

Schisto B 2 = Schisto B 2 (Schistosoma mansoni, UniProt Q95PM1); test: Cysteine protease inhibition, progress curve method, schistosoma B 2; type: biochemical; settings: 10 uM Cbz-Phe-Arg-AMC, 100 mM Na acetate pH 5.5, 5 mM cysteine
Chain of Schisto B 2 (Q95PM1 entry or part of it): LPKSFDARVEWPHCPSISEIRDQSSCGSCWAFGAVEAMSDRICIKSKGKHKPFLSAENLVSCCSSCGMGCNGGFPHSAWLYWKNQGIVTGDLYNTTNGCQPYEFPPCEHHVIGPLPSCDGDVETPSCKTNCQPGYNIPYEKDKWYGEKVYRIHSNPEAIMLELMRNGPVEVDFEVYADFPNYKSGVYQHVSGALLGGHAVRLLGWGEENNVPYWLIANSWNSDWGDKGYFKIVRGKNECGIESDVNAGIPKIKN
Description: as §1, §2, §3, §4, §5, §6, §7

Cruzain = Cruzain (Trypanosoma cruzi, UniProt P25779); test: Cysteine protease inhibition, progress curve method, cruzain; type: biochemical; settings: 4 uM Ac-Lys-Glu-Lys-Leu-Arg-AMC, 100 mM Na acetate pH 5.5, 5 mM cysteine; read-out: Cruzain Ki
Chain of Cruzain (P25779 123-337): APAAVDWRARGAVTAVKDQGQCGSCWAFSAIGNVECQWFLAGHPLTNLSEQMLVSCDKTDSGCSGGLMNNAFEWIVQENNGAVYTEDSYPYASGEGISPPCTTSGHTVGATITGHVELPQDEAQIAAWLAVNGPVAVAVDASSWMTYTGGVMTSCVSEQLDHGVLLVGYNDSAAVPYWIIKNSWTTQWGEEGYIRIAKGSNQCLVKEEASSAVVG
Method in brief: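 Buffer was 100 mM sodium acetate pH 5.5 with 5 mM cysteine and 2% DMSO, at ambient temperature; reactions started with enzyme, and AMC formation was followed for 20–30 min. Substrates: Leishmania and Schistosoma, 10 uM Cbz-Phe-Arg-AMC; falcipain, 10 uM Cbz-Leu-Arg-AMC; cruzain, 4 uM Ac-Lys-Glu-Lys-Leu-Arg-AMC. Linear curves gave Ki,app; curved ones gave kobs/[I].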

Rhodazain = Rhodazain (Trypanosoma brucei rhodesiense, UniProt Q95PM0); test: Cysteine protease inhibition, progress curve method, rhodazain; type: biochemical, Trypanosoma brucei rhodesiensi; settings: 10 uM Cbz-Leu-Arg-AMC, 100 mM Na acetate pH 5.5, 5 mM cysteine
Chain of Rhodazain (Q95PM0 entry or part of it): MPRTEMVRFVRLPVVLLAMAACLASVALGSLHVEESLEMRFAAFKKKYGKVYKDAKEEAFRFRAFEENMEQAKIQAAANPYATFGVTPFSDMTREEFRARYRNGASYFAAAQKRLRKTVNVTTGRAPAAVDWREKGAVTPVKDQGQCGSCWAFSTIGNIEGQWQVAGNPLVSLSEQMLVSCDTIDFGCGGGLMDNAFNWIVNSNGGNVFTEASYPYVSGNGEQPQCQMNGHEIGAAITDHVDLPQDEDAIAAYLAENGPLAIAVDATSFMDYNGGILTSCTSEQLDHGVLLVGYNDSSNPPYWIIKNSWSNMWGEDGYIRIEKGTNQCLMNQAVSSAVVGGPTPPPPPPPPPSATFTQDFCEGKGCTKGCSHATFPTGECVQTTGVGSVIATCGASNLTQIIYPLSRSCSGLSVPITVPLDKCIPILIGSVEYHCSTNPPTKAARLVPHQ

Falcipain 2 = Falcipain 2 (Plasmodium falciparum, UniProt Q8I6U4); test: Cysteine protease inhibition, progress curve method, falcipain; type: biochemical; settings: 10 uM Cbz-Leu-Arg-AMC, 100 mM Na acetate pH 5.5, 5 mM cysteine
Chain of Falcipain 2 (Q8I6U4 244-484): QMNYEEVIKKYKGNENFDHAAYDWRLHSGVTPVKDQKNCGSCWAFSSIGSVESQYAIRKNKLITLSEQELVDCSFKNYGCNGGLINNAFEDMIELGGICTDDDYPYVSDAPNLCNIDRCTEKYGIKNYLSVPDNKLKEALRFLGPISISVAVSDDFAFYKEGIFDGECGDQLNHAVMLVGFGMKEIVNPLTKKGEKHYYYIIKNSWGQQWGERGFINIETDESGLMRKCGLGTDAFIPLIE
Description: as §1, §2, §3, §4, §5, §6, §7

Chain of Schisto B 1 (P25792 89-340): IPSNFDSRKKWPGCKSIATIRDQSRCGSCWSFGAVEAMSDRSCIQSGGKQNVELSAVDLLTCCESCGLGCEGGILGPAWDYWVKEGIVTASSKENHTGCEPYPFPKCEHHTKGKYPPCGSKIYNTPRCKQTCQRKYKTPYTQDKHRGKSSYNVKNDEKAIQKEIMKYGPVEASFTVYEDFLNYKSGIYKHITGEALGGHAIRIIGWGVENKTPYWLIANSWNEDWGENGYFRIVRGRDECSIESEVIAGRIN

Compound	Ki (Schisto B 1) [nM]	Ki (Schisto B 2) [nM]	Ki (Cruzain) [nM]	Ki (Rhodazain; Rhodazain Ki (nM)) [nM]	Ki (Falcipain 2) [nM]	Ki (Rhodazain; read-out: Rhodazain Ki) [nM]
COc1cccc(S(=O)(=O)N2CCC[C@H](NC(=O)[C@H](CC(C)C)NC(=O)c3cc4ccccc4s3)C(=O)C2)c1 [Example 140, Benzo[b]thiophene-2-carboxylic acid-{(S)-1-[1-(3-methoxy-benzenesulfonyl)-3-oxo-azepan-4-ylcarbamoyl]-3-methyl-butyl}-amide]	68	280				
O=C(N[C@@H](Cc1ccccc1)C(=O)NC1CCCN(S(=O)(=O)c2ccccn2)CC1=O)c1cc2ccccc2o1 (stereo partly drawn) [Example 104, Benzofuran-2-carboxylic acid {(S)-1-[3-oxo-1-(pyridine-2-sulfonyl)-azepan-4-ylcarbamoyl]-2-phenyl-ethyl}-amide]	76	270	13	3.2		
CC(C)C[C@@H](NC(=O)c1cc2cc(OCCN3CCOCC3)ccc2o1)C(=O)NC1CCCN(C(=O)Cc2cccc(-c3ccccn3)c2)CC1=O (single isomer, unassigned) [Example 4]	100	320				
COc1cccc(S(=O)(=O)N2CCC[C@H](NC(=O)[C@H](CC(C)C)NC(=O)c3cc4cc(OC)ccc4o3)C(=O)C2)c1 [Example 137, 5-Methoxy-benzofuran-2-carboxylic acid-{(S)-1-[1-(3-methoxy-benzenesulfonyl)-3-oxo-azepan-4-ylcarbamoyl]-3-methyl-butyl}-amide]	67	380	19			
CC(C)C[C@H](NC(=O)c1cnc2ccccc2n1)C(=O)N[C@H]1CCCN(S(=O)(=O)c2ccc(F)cc2)CC1=O [Example 86]	44	260	23			
COc1cccc(S(=O)(=O)N2CCC[C@H](NC(=O)[C@H](CC(C)C)NC(=O)c3cc4ccccc4n3C)C(=O)C2)c1 [Example 141, 1-Methyl-1H-indole-2-carboxylic acid-{(S)-1-[1-(3-methoxy-benzenesulfonyl)-3-oxo-azepan-4-ylcarbamoyl]-3-methyl-butyl}-amide]	50	400				
CC(C)C[C@H](NC(=O)c1ccc2ccccc2n1)C(=O)N[C@H]1CCCN(S(=O)(=O)c2ccc(F)cc2)CC1=O [Example 83]	61	230				
CC(C)CC(NC(=O)c1cc2ccccc2o1)C(=O)N[C@@H]1CCCN(S(=O)(=O)c2ccc(F)cc2)CC1=O (stereo partly shown) [Example 109]	31	120				
Cc1occc1S(=O)(=O)N1CCC[C@H](NC(=O)[C@H](CC(C)C)NC(=O)c2cc3ccccc3o2)C(=O)C1 [Example 179]	11	110	2.2	5.1		
COc1cccc(S(=O)(=O)N2CCC[C@H](NC(=O)[C@H](CC(C)C)NC(=O)c3oc4ccccc4c3C)C(=O)C2)c1 [Example 139, 3-Methyl-benzofuran-2-carboxylic acid-{(S)-1-[1-(3-methoxy-benzenesulfonyl)-3-oxo-azepan-4-ylcarbamoyl]-3-methyl-butyl}-amide]	64	230				
Cc1c(C(=O)N[C@@H](CC(C)C)C(=O)N[C@H]2CCCN(S(=O)(=O)c3ccc(Cl)cc3)CC2=O)oc2ccccc12 [Example 134, 3-Methyl-benzofuran-2-carboxylic acid-{(S)-1-[1-(4-chloro-benzenesulfonyl)-3-oxo-azepan-4-ylcarbamoyl]-3-methyl-butyl}-amide]	78	360				
COc1cc2cc(C(=O)N[C@H](CC3CCCCC3)C(=O)NC3CCCN(S(=O)(=O)c4cccc[n+]4[O-])CC3=O)oc2cc1OC (stereo partly drawn) [Example 170, 5,6-Dimethoxy-benzofuran-2-carboxylic acid {(S)-2-cyclohexyl-1-[3-oxo-1-(1-oxy-pyridine-2-sulfonyl)-azepan-4-ylcarbamoyl]-ethyl}-amide]	49	82		4.7		
CC(C)C[C@@H](NC(=O)c1ccc2c(c1)OCO2)C(=O)N[C@@H]1CCCN(S(=O)(=O)c2ccc(F)cc2)CC1=O (stereo in doubt) [Example 67, Benzo[1,3]dioxole-5-carboxylic acid {(S)-1-[1-(4-fluoro-benzenesulfonyl)-3-oxo-azepan-4-ylcarbamoyl]-3methyl-butyl}-amide]	45	330	11			
COc1cccc(S(=O)(=O)N2CCC[C@H](NC(=O)[C@H](CC(C)C)NC(=O)c3cc4ccccc4o3)C(=O)C2)c1 [Example 136, Benzofuran-2-carboxylic acid-{(S)-1-[1-(3-methoxy-benzenesulfonyl)-3-oxo-azepan-4-ylcarbamoyl]-3-methyl-butyl}-amide]	41	170	12			
CC(C)C[C@H](NC(=O)c1cc2ccccc2n1C)C(=O)N[C@H]1CCCN(S(=O)(=O)c2ccc(F)cc2)CC1=O [Example 84]	160	1100				
COc1cccc2cc(C(=O)N[C@@H](CC(C)C)C(=O)N[C@@H]3CCCN(S(=O)(=O)c4cccs4)CC3=O)oc12 [Example 144, 7-Methoxy-benzofuran-2-carboxylic acid-{(S)-3-methyl-1-[3-oxo-1-(thiophene-2-sulfonyl)-azepan-4-ylcarbamoyl]-butyl}-amide]			5.5	8.6	6.2	
COc1ccc2oc(C(=O)N[C@@H](CC(C)C)C(=O)N[C@H]3CCCN(S(=O)(=O)c4ccc(F)cc4)CC3=O)cc2c1 [Example 85]	45	130				
CC(C)C[C@@H](NC(=O)c1ccc2[nH]ccc2c1)C(=O)N[C@@H]1CCCN(S(=O)(=O)c2cccc[n+]2[O-])CC1=O [Example 54, 1H-Indole-5-carboxylic acid {(S)-3-methyl-1-[3-oxo-1-(1-oxy-pyridine-2-sulfonyl)-azepan-4-ylcarbamoyl]-butyl}amide]			5.2	4.1	7.8	
CC(C)CC(NC(=O)c1nc(-c2ccccc2)oc1C(F)(F)F)C(=O)NC1CCCN(S(=O)(=O)c2ccccn2)CC1=O (single isomer, unassigned) [Example 105]			13	5.3	84	
CC(C)C[C@@H](NC(=O)c1ccc2ccccc2c1)C(=O)N[C@@H]1CCCN(S(=O)(=O)c2ccccn2)CC1=O (single isomer, unassigned) [Example 155]			4.1	3	6.1	
Benzofblthiophene-2-carboxylic acid {(S)-3-methyl-1-[3-oxo-1-(1-oxy-pyridine-2-sulfonyl)-azepan-4-ylcarbamoyl]-butyl}amide [Example 51]			6.4		5.1	3
CC(C)C[C@H](NC(=O)c1cc2ccccc2o1)C(=O)N[C@H]1CCCN(S(=O)(=O)c2cccc(Cl)c2)CC1=O [Example 88, Benzofuran-2-carboxylic acid-{(S)-1-[1-(3-chloro-benzenesulfonyl)-3-oxo-azepan-4ylcarbamoyl]-3-methyl-butyl}-amide]	77	140				
COc1ccc2oc(C(=O)N[C@H](CC(C)C)C(=O)N[C@@H]3CCCN(S(=O)(=O)c4ncccc4C)CC3=O)cc2c1 (single isomer, unassigned) [Example 171]			2.5	3.2	4.9	
